Assay results taken from US11192900B2, “Substituted 1,6-dihydropyridinones and 1,2-dihydroisoquinolinones as bet inhibitors” (NUVATION BIO INC., priority 2018, dated 2021).
pIC50: −log10 of the molar value.

How the values were obtained:
[1] = tested on: MV-4-11 human acute myeloid leukemia cell line; assay: Second cell viability assay in MV-4-11 (Cell Titer-Glo); assay type: cell-based; details: Homo sapiens; MV4-11, Cell Titer-Glo, 72 hrs; read-out: Cell Viability IC50 in MV4-11 cells
Method: The effects of test compounds were studied in a second cell viability assay in the MV-4-11 human acute myeloid leukemia cell line. The cells were harvested during the logarithmic growth period and counted. Cells were seeded at a count of 15000 cells per well/100 μl. After seeding, cells were incubated at 37° C., 5% CO2 for 1 hr. Cells were treated with test compounds at 8 concentrations within a desired concentration range (e.g. 5 nM-[…]) for generation of dose response curves by preparing serial dilutions of the test compound in DMSO which were further diluted with culture medium and then added to each well. The plate was further incubated for another 72 hrs in a humidified incubator at 37° C. and 5% CO2. The assay was terminated by addition of Cell Titer-Glo reagent (Promega, Madison, Wis.) at ¼ the volume of total medium per well. Contents were mixed, the plate was incubated for 10 min at room temperature and luminescence was measured. Cell viability data were plotted using GraphPad Prism (GraphPad Software, Inc., San Diego, Calif.). In addition, a nonlinear regression model with a sigmoidal dose response and variable slope within GraphPad Prism was used to calculate the IC50 value of individual test compounds.

[2] = target: BRD4-1 (Homo sapiens (Human), UniProt O60885); assay: Bromodomain and Extraterminal Domain (BET) Binding Assay; details: Table 3; read-out: BRD4-1 IC50
Method: (§1) The bromodomain binding assays were performed by Reaction Biology Corp., Malvern, Pa., USA (www.reactionbiology.com). The BET binding assays were conducted in 384 well microplates in assay buffer (50 mM HEPES-HCl, pH 7.5, 100 mM NaCl, 1 mg/ml BSA, 0.05% CHAPS, and 0.5% DMSO) with compounds added as DMSO stocks at a single concentration or with 10-point dose response titrations. BET protein or assay buffer were delivered to the appropriate wells of the microplate. Test compound was then delivered by acoustic technology via a Labcyte Echo550 liquid handler. The microplate was centrifuged for 5 min and pre-incubated for 30 min at RT with gentle shaking. The ligand (histone H4 peptide (1-21) K5/8/12/16Ac-biotin) was delivered and the microplate was again centrifuged for 5 min and allowed to incubate for 30 min at RT with gentle shaking. Donor beads were then added in the absence of light and the microplate was centrifuged and gently shaken. After 5 min, acceptor beads were added in the absence of light and the microplate was centrifuged and gently shakenin the dark for 60 min. The microplate was read using a Perkin Elmer EnSpire Alpha plate reader (λEx/λEm=680/520-620 nm). Percent inhibition was calculated relative to positive and negative controls on a per plate basis. For titration experiments, IC50 values were determined by fitting the percent inhibition versus compound concentration.

[3] = target: BRD4-2 (Homo sapiens (Human), UniProt O60885); assay: as above; details: Table 3; read-out: BRD4-2 IC50
Method: as §1

[4] = tested on: c-Myc; assay: Measurement of c-Myc suppression after washoff (Western blot); assay type: cell-based, human; details: MV4-11, 2 μM for 2 hr, washed, further 6 hr
Method: MV4-11 cells were incubated with 2 μM of JQ1, mivebresib or a test compound for 2 hr. The cells were then washed twice with fresh culture medium and further cultured for another 6 hr. Cells were extracted with SDS sample buffers and then subjected to Western blot analysis to measure c-Myc. Compounds 2, 3, 12, 17, 409, 411 and 412 were tested in these assays.

Compound	pIC50 [1]	pIC50 [2]	pIC50 [3]	c-Myc suppression activity after washoff [4]
C=CC(=O)Nc1ccc(Oc2c(C)cccc2C)c(-c2cn(C)c(=O)c3sc(C(=O)NCC)cc23)c1 [Compound 381, 4-(5-acrylamido-2-(2,6-dimethylphenoxy)phenyl)-N-ethyl-6-methyl-7-oxo-6,7-dihydrothieno[2,3-c]pyridine-2-carboxamide]	6.76	4.90	7.89	–
C=CC(=O)Nc1ccc(Oc2c(F)cccc2F)c(-c2cn(C)c(=O)c3ccccc23)c1 [Compound 583, N-(4-(2,6-difluorophenoxy)-3-(2-methyl-1-oxo-1,2-dihydroisoquinolin-4-yl)phenyl)acrylamide]	6.60	–	7.11	–
C=CC(=O)Nc1ccc(Oc2c(C)cccc2C)c(-c2cn(C)c(=O)c3ccccc23)c1 [Compound 397, N-(4-(2,6-dimethylphenoxy)-3-(2-methyl-1-oxo-1,2-dihydroisoquinolin-4-yl)phenyl)acrylamide]	–	5.01	6.26	–
C=CS(=O)(=O)Nc1ccc(Oc2ccc(F)cc2F)c(-c2cc(N(C)C)c(=O)n(C)c2)c1 [Compound 16, N-(4-(2,4-difluorophenoxy)-3-(5-(dimethylamino)-1-methyl-6-oxo-1,6-dihydropyridin-3-yl)phenyl)ethenesulfonamide]	–	8.22	7.59	–
CCS(=O)(=O)Nc1ccc(Oc2ccc(F)cc2F)c(-n2cc(C)c(=O)c3ccccc32)c1 [Compound 616, N-(4-(2,4-difluorophenoxy)-3-(3-methyl-4-oxoquinolin-1(4H)-yl)phenyl) ethanesulfonamide]	7.42	7.96	8.40	–
C#CC(=O)Nc1ccc(Oc2c(C)cccc2C)c(-c2cn(C)c(=O)c3cc(C(=O)NCC)sc23)c1 [Compound 587, 7-(2-(2,6-dimethylphenoxy)-5-propiolamidophenyl)-N-ethyl-5-methyl-4-oxo-4,5-dihydrothieno[3,2-c]pyridine-2-carboxamide]	7.35	–	7.96	–
C/C=C/C(=O)Nc1ccc(Oc2c(C)cccc2C)c(-c2cn(C)c(=O)c3cc(C(=O)NCC)sc23)c1 [Compound 611, (E)-7-(5-but-2-enamido-2-(2,6-dimethylphenoxy)phenyl)-N-ethyl-5-methyl-4-oxo-4,5-dihydrothieno[3,2-c]pyridine-2-carboxamide]	–	5.13	8.70	–
C=CS(=O)(=O)Nc1ccc(Oc2ccc(OC)cc2)c(-c2cn(C)c(=O)c3ccccc23)c1 [Compound 12, N-(4-(4-methoxyphenoxy)-3-(2-methyl-1-oxo-1,2-dihydroisoquinolin-4-yl)phenyl)ethenesulfonamide]	–	–	7.43	less durable or no suppression activity
C/C=C/S(=O)(=O)Nc1ccc(Oc2ccc(F)cc2F)c(-c2cn(C)c(=O)c3ccccc23)c1 [Compound 86, (E)-N-(4-(2,4-difluorophenoxy)-3-(2-methyl-1-oxo-1,2-dihydroisoquinolin-4-yl)phenyl)prop-1-ene-1-sulfonamide]	6.56	–	7.10	–
C=CC(=O)Nc1ccc(Nc2ccc(F)cc2F)c(-c2cn(C)c(=O)c3ccccc23)c1 [Compound 305, N-(4-(2,4-difluorophenylamino)-3-(2-methyl-1-oxo-1,2-dihydroisoquinolin-4-yl)phenyl)acrylamide]	–	5.77	5.66	–
CCS(=O)(=O)Nc1ccc(Oc2ccc(F)cc2F)c(-c2cn(C)c(=O)c3[nH]ccc23)c1 [mivebresib, reference compound]	–	–	–	rebound in c-Myc expression
C=CC(=O)Nc1ccc(Oc2c(C)cccc2C)c(-c2cn(C)c(=O)cc2OC(C)C)c1 [Compound 589, N-(4-(2,6-dimethylphenoxy)-3-(4-isopropoxy-1-methyl-6-oxo-1,6-dihydropyridin-3-yl)phenyl)acrylamide]	6.74	5.14	7.92	–
C=CC(=O)Nc1ccc(Nc2c(C)cccc2C)c(-c2cn(C)c(=O)c3ccccc23)c1 [Compound 313, N-(4-(2,6-dimethylphenylamino)-3-(2-methyl-1-oxo-1,2-dihydroisoquinolin-4-yl)phenyl)acrylamide]	–	< 5.00	6.05	–
C=CC(=O)Nc1ccc(Oc2ccc(F)cc2F)c(-n2cc(C)c(=O)c3ccccc32)c1 [Compound 613, N-(4-(2,4-difluorophenoxy)-3-(3-methyl-4-oxoquinolin-1(4H)-yl)phenyl)acrylamide]	5.22	–	7.57	–

More lines, main results first:

pIC50 [1]	pIC50 [2]	pIC50 [3]	Compound	c-Myc suppression activity after washoff [4]
–	7.28	6.93	C#CC(=O)Nc1ccc(Oc2ccc(F)cc2F)c(-c2cc(NC)c(=O)n(C)c2)c1 [Compound 2, N-(4-(2,4-difluorophenoxy)-3-(1-methyl-5-(methylamino)-6-oxo-1,6-dihydropyridin-3-yl)phenyl)propiolamide]	less durable or no suppression activity
–	4.80	6.36	C=CC(=O)Nc1ccc(Oc2c(C)cc(F)cc2C)c(-c2cn(C)c(=O)c3ccccc23)c1 [Compound 408, N-(4-(4-fluoro-2,6-dimethylphenoxy)-3-(2-methyl-1-oxo-1,2-dihydroisoquinolin-4-yl)phenyl)acrylamide]	–
7.01	6.37	7.77	C=CC(=O)Nc1ccc(Oc2c(C)cc(F)cc2C)c(-c2cc(NC)c(=O)n(C)c2)c1 [Compound 167, N-(4-(4-fluoro-2,6-dimethylphenoxy)-3-(1-methyl-5-(methylamino)-6-oxo-1,6-dihydropyridin-3-yl)phenyl)acrylamide]	–
–	7.52	7.82	C=CC(=O)Nc1ccc(Oc2ccc(F)cc2F)c(-c2cc(N(C)C)c(=O)n(C)c2)c1 [Compound 29, N-(4-(2,4-difluorophenoxy)-3-(5-(dimethylamino)-1-methyl-6-oxo-1,6-dihydropyridin-3-yl)phenyl)acrylamide]	–
–	6.73	7.19	C=CC(=O)Nc1ccc(Oc2ccc(F)cc2F)c(-c2cc(NC)c(=O)n(C)c2)c1 [Compound 1, N-(4-(2,4-difluorophenoxy)-3-(1-methyl-5-(methylamino)-6-oxo-1,6-dihydropyridin-3-yl)phenyl)acrylamide]	–
–	6.98	7.24	C=CC(=O)Nc1ccc(Oc2ccc(F)cc2)c(-c2cc(NC)c(=O)n(C)c2)c1 [Compound 30, N-(4-(4-fluorophenoxy)-3-(1-methyl-5-(methylamino)-6-oxo-1,6-dihydropyridin-3-yl)phenyl)acrylamide]	–
–	–	6.92	C=CC(=O)Nc1ccc(Oc2ccc(C)cc2)c(-c2cc(NC)c(=O)n(C)c2)c1 [Compound 6, N-(3-(1-methyl-5-(methylamino)-6-oxo-1,6-dihydropyridin-3-yl)-4-(p-tolyloxy)phenyl)acrylamide]	–
–	–	6.05	C=CC(=O)Nc1ccc(Nc2ccc(F)cc2F)c(-c2cc(NC)c(=O)n(C)c2)c1 [Compound 288, N-(4-(2,4-difluorophenylamino)-3-(1-methyl-5-(methylamino)-6-oxo-1,6-dihydropyridin-3-yl)phenyl)acrylamide]	–
–	–	6.11	C=CC(=O)Nc1ccc(OC(C)C)c(-c2cc(NC)c(=O)n(C)c2)c1 [Compound 24, N-(4-isopropoxy-3-(1-methyl-5-(methylamino)-6-oxo-1,6-dihydropyridin-3-yl)phenyl)acrylamide]	–
